“And” between values parts separate entries of the source, which are not always exact repeats. Identical values can stand only once. Like-named read-outs stand apart in the source and are kept apart here.
Legend:
[1] = test system: MCF7 (mammary gland adenocarcinoma); experiment: CIMA assay, cell viability, MCF7; format: cell-based, human; conditions: SDS 5% control
Experimental: (§1) Stock solutions of the extracts were prepared in dimethylsulfoxide (DMSO) at 10 mg/mL and stored in 200 μl aliquots at −20° C. until analysis. This preparation ensured that the DMSO delivered to cells in culture never exceeded 1%.
(§2) Prepared extracts were assessed following chronic exposure conditions in which cells were seeded at 2×10^3 cells/well (96 well-plate) and incubated with test compounds for 72 h. Each compound was evaluated over a range of concentrations (0, 10, 25, 50 or 100 μg/ml). Cell proliferation was initially assessed using a standard colorimetric indicator of metabolic activity (CIMA) assay. In this assay, tetrazole reduction was evaluated as a measure of metabolic function that evaluates mitochondrial activity to determine the extent of cell proliferation within a culture. This assay is based on the reduction of yellow tetrazolium salt to purple formazan by mitochondrial reductases enzyme in viable cells, resulting in a color changed that confers a change in absorbance.

[2] = test system: PC3
[3] = test system: SKOV3 (ovarian adenocarcinoma)
Experimental: as §1, §2

[4] = test system: MDA-MB; conditions: MDA-MB
[5] = test system: PC3; experiment: CIMA assay, cell viability, PC3; conditions: PC3
[6] = test system: U373 (glioblastoma-astrocytoma); experiment: CIMA assay, cell viability, U373; conditions: for Fold change in viability AVG / Average cell viability: U373
[7] = test system: SKOV3 (ovarian adenocarcinoma); experiment: CIMA assay, cell viability, SKOV3; conditions: SKOV
Experimental: as §1, §2

[8] = test system: THP-1 (acute monocytic leukemia); experiment: CIMA assay, cell viability, THP-1; conditions: THP-1
[9] = test system: CCD1079SK (fibroblast, noncancerous but proliferating); experiment: CIMA assay, cell viability, CCD1079SK; conditions: for Fold change in viability AVG / Average cell viability: CCD
[10] = test system: A549 (lung carcinoma); experiment: CIMA assay (colorimetric indicator of metabolic activity), cell viability, A549; conditions: A549; for Average cell viability: unit assumed

CCCCCCCCCCCCOS(=O)(=O)[O-].[Na+] [SDS, reference compound]
AVG (CIMA assay, cell viability) [1]: 49.9
viability (AVG) [1]: 44.1
viability (AVG) [2]: 77.3%
AVG (CIMA assay, cell viability) [3]: 56.5
viability (AVG) [3]: 78.9%
Fold change in viability AVG ([4]; positive control 250 ug/mL): 0.16
Fold change in viability AVG ([4]; positive control SDS 250 ug/mL): 0.16
Fold change in viability AVG ([5]; positive control 250 ug/mL): 0.08
Fold change in viability AVG ([5]; positive control SDS 250 ug/mL): 0.08
AVG (CIMA assay, cell viability) ([6]; U373, SDS 5% control): 58.1 and 44.1
viability (AVG) ([6]; U373, SDS 5% control): 48.4
Fold change in viability AVG ([6]; positive control 250 ug/mL): 0.05
Average cell viability ([6]; positive control 250 ug/ml): 4%
Fold change in viability AVG ([6]; positive control SDS 250 ug/mL): 0.05
Average cell viability ([6]; positive control SDS 250 ug/ml): 4%
Fold change in viability AVG ([7]; positive control 250 ug/mL): 0.10
Fold change in viability AVG ([7]; positive control SDS 250 ug/mL): 0.10
AVG (CIMA assay, cell viability) ([8]; SDS 5% control): 36.2
viability (AVG) ([8]; SDS 5% control): 20.3
Fold change in viability AVG ([8]; positive control 250 ug/mL): 0.18
Average cell viability ([8]; positive control 250 ug/ml): 16%
Fold change in viability AVG ([8]; positive control SDS 250 ug/mL): 0.18
Average cell viability ([8]; positive control SDS 250 ug/ml): 16%
viability (AVG) ([9]; CCD1079SK, SDS 5% control): 9.4
AVG (CIMA assay, cell viability) ([9]; CCD10795K, SDS 5% control): 11.3
Fold change in viability AVG ([9]; positive control 250 ug/mL): 0.06
Average cell viability ([9]; positive control 250 ug/ml): 5%
Fold change in viability AVG ([9]; positive control SDS 250 ug/mL): 0.06
Average cell viability ([9]; positive control SDS 250 ug/ml): 5%
viability (AVG) ([10]; SDS 5% control): 68.7
Fold change in viability AVG ([10]; positive control 250 ug/mL): 0.13
Average cell viability ([10]; positive control 250 ug/ml): 11%
Fold change in viability AVG ([10]; positive control SDS 250 ug/mL): 0.13
Average cell viability ([10]; positive control SDS 250 ug/ml): 11%

— patent US11292807B2 (OCEANS LTD., priority 2015, dated 2022)
